Where two headings read alike, the source gives them in different places. Values belong to the molecule of their own block, whether it stands above or below them.
Key:
[1] = target: T1, MCT1 (Homo sapiens, UniProt P53985, D490E); assay: Yeast expressed MCT1 filter binding assay (competition with 3H-ligand C); design: The invention is not restricted to the use of full-length native human MCTs; made in house; host or cells: Saccharomyces cerevisiae BY4742 (jen1 deletion), membrane preparation; plasmid pACES14-hMCT1; conditions: yeast membrane MCT1 filter binding, 2.5 nM 3H-ligand C
T1 sequence (P53985 1-500 D490E): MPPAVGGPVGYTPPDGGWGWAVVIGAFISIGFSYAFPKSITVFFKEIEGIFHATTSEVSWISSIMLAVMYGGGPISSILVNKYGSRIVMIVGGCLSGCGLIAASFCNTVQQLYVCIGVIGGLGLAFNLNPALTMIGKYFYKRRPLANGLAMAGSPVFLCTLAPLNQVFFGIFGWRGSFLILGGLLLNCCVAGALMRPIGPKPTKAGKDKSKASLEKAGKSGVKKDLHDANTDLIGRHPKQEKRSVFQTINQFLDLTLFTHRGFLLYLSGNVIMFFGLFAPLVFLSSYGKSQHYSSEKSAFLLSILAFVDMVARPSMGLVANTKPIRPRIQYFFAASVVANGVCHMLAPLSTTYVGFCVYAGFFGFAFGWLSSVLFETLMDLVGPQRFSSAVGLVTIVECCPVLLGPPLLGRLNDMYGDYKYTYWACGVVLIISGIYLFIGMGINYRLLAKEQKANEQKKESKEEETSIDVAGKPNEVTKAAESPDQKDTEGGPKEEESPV
Procedure: Assay to Measure the Potency of Selected Compounds Using a Filter Binding Assay
Competition assays can be used to measure the affinity of unlabelled compound for MCT1. […] 180 μl of yeast membranes expressing MCT1 in assay buffer containing typically 0.5 to 1 μg total protein was added to start the reaction. […] The competition assay was incubated at 2 hours at room temperature with shaking. Experimental data points were usually carried out in triplicate. The membranes were harvested onto GF-B filter plates and washed with assay buffer without BSA, dried, scintillant added and counts detected using a tritium program on a Packard Top Count plate reader. The results were analysed by subtraction of the non-specific binding from each of the experimental points and then fitting a sigmoidal curve through a semi-log plot of the data in Microcal Origin.

[2] = target: T2, MCT1 with a streptavidin-binding sequence tag (Homo sapiens, UniProt P53985, D490E); assay: Yeast membrane MCT1-strep tagged SPA assay (125I ligand A); conditions: 0.1 nM 125I ligand A
T2 construct: The invention is not restricted to the use of full-length native human MCTs; made in house; host or cells: Saccharomyces cerevisiae BY4742 (jen1 deletion), membrane preparation; plasmid pACES14-MCT1-strep tag
T2 sequence (P53985 1-500 D490E): T1 sequence (P53985 1-500 D490E)
Procedure: Yeast membranes expressing MCT1 with a streptavidin-binding sequence tag were then added to give a final concentration of 37 μg/ml protein and gently rolled for >30 minutes at room temperature. The beads/membranes were then washed by centrifugation at ˜650 g for 10 minutes and resuspended in assay buffer+0.05% BSA. The washing was repeated once before resuspended in the appropriate volume of assay buffer+0.05% BSA.
Finally, 80 μl of the membrane/bead suspension was added to each well. […] The raw counts were analysed by averaging replicates, subtraction of non-specific binding and the subsequent calculation of % inhibition of binding of the iodinated ligand.

[3] = target: T3, rat MCT1 (Rattus norvegicus, UniProt P53987); conditions: cited from earlier work
T3 sequence (P53987 1-494): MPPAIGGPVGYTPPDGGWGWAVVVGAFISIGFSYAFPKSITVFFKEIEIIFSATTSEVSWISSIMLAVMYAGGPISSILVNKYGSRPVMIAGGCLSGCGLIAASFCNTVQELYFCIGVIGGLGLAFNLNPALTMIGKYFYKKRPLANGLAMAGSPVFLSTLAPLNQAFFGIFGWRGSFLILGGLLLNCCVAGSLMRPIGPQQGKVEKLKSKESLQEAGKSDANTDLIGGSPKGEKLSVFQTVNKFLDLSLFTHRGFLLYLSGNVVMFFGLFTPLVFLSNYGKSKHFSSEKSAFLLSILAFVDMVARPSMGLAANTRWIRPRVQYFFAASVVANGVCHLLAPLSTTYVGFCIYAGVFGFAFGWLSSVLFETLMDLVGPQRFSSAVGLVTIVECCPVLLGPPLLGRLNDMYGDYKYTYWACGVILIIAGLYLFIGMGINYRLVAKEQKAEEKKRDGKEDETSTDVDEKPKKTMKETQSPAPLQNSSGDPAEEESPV

[4] = tested on: IgG2a production; assay: Inhibition of murine antibody production, IgG2a (ovalbumin in poly I:C); type: in vivo, Balb/c mice; conditions: Mus musculus, sc, 168 h, subcutaneous, 7 days following antigenic boost
Procedure: To measure the effect of the compound on IgG2a production, Balb/c mice were immunised with ovalbumin in poly I:C adjuvant (polyinosinic:polycytidylic acid adjuvant) and left for 14 days before being re-challenged with ovalbumin in buffered saline vehicle and left for a further 7 days. Serum samples were taken from the mice and analysed for total and specific IgG2a. Compound was dosed daily from re-challenge to termination prior to serum collection. For total IgG2A, microtitre plates were coated with 5 ug/ml of goat anti-mouse IgG2a in PBS and incubated overnight at 4° C. The plates were then washed four times with PBS containing 0.05% Tween 20 and then blocked with 1% BSA at room temperature for 2 hours. This was followed by two further plate washings. The serum samples and IgG2a standards were added to the wells in duplicate and incubated at 4° C. overnight. The plates were then washed a further four times before adding 50 ul alkaline phosphatase conjugated goat anti-mouse IgG appropriately diluted in 0.1% BSA in PBS and left at room temperature for an hour. The plate was washed a further four times before enzyme substrate (p-nitrophenyl phosphate in 1M diethanolamine buffer pH 9.8) at 1 mg/ml was added. Once the colour reaction developed, the absorbance of the wells at 405 nm was read in a spectrophotometer. […]

[5] = tested on: activated T-lymphocytes; assay: Intracellular lactate levels in activated T-lymphocytes (lactate oxidase); type: cell-based; conditions: Homo sapiens, T-lymphocyte; Mean±s.e.mean (mean±range for n=2); read-out: pIA50 Intracellular Lactate (converted)
Procedure: (§1) PBMCs were prepared as described above by separation over Lymphoprep and T-lymphocytes were then enriched by purification on a nylon wool column. Briefly, 0.6 g nylon wool was inserted into a 10 ml syringe and this was autoclaved. […] The PBMC were resuspended in 1 ml of pre-warmed RPMI (20% HS) and were loaded onto the nylon wool column. The column was incubated for 45 min at 37° C. followed by elution of the T-cells by adding 10 ml RPMI (20% HS) (prewarmed to 37° C.) dropwise to the column. The T-cells obtained from the elution of the column were centrifuged (850 g for 5 min) and resuspended in RPMI containing L-glutamine and 5% human serum and stimulated with 0.5 ng/ml PMA and 500 ng/ml lonomycin for 48 h.
100 μl of each concentration were added to triplicate wells of a 24-well plate. T-cells were then added (1 ml per well) and were cultured for 4 h under standard cell culture conditions. The cells were then transferred from each well to microfuge tubes and were centrifuged at 360 g for 5 min at 4° C. The supernatant was discarded and the cell pellet was resuspended in 1 ml of ice-cold PBS, pH5.0. The cells were washed twice in PBS by centrifugation (360 g, 5 min, 4° C.) followed by resuspension of the cell pellet in 100 μl deionized water. The cells were incubated for 15 min at 4° C. to allow cell lysis to occur and the cell debris was removed by centrifugation at 15000 g for 10 min at 4° C. 10 μl of each supernatant sample were used for the lactate determination.
(§2) The assay was carried out in 96-well plates at room temperature. 10 μl of standard or sample were added to each well followed by 200 μl of the Lactate Reagent. […] The data were collected and analysed using SOFTmax PRO software (Molecular Devices).

[6] = tested on: activated T-lymphocytes; assay: Extracellular lactate levels in activated T-lymphocytes (lactate oxidase); type: cell-based, human
Procedure: as §1
20 μl of each concentration were added to triplicate wells of a 96-well plate. T-cells were then added (200 μl per well, 2×10^5 cells) and were cultured for 4 h under standard cell culture conditions. The cell supernatants were collected from each well after the cells were pelleted by centrifugation of the plate at 850 g for 5 min at 4° C. 10 μl of each supernatant sample were used for the lactate determination.
as §2

[7] = tested on: IgE production; assay: Inhibition of murine antibody production, IgE (ovalbumin immunised); type: in vivo, Balb/c mice; conditions: 10 days following antigenic boost
Procedure: Balb/c mice were immunised with 0.5 mg/kg ovalbumin (OVA) and 200 mg/kg aluminium hydroxide gel in saline intraperitoneally and left for 29 days before being re-challenged intraperotoneally with 0.5 mg/kg ovalbumin in buffered saline vehicle and left for a further 10 days. Compound was dosed daily from re-challenge to termination prior to serum collection. Control groups were dosed with compound vehicle only. On completion of dosing, serum samples were taken from the mice and analysed for total and specific levels of IgE.
For total IgE, microtitre plates were coated with 5 ug/ml monoclonal rat anti-mouse IgE in phosphate buffered saline (PBS) and incubated overnight at 4° C. The plates were then washed four times with PBS containing 0.05% Tween 20 and then blocked with 1% BSA in PBS at room temperature for 2 hours. This was followed by two further plate washings.
The serum samples and IgE standards were added to the wells in duplicate and incubated overnight. The plates were then washed a further four times before adding 50 ul biotinylated monoclonal rat anti-mouse IgE appropriately diluted in 0.1% BSA in PBS for 2 hours. The plate was washed for a further four times before adding 50 ul streptavidin alkaline phosphatase conjugate appropriately diluted in 1% BSA in PBS at room temperature for 50 minutes. The plate was washed a further four times before enzyme substrate (paranitrophenyl phoshate in 1M diethanolamine buffer pH 9.8) at 1 mg/ml was added. Once the colour reaction developed, the plate was read at 405 nm. Levels of total IgE in serum samples were extrapolated from curve obtained with IgE standards.
For specific IgE, the methodology was similar except for the following. The microtitre plates were coated with 50 ug/ml rat anti-mouse IgE. The serum samples or normal control sera were added to the washed plates. Biotinylated OVA diluted in 0.1% BSA in PBS was used as enzyme marker.

[8] = tested on: activated T-lymphocytes; assay: DNA synthesis ([3H]-thymidine incorporation) in activated T-lymphocytes; type: cell-based; conditions: Homo sapiens, T-lymphocyte; Mean±s.e.mean (mean±range for n=2); read-out: pIA50 DNA (converted)
Procedure: as §1
DNA synthesis was assessed by measuring the incorporation of [^3H]-thymidine. The assay was carried out in a 96-well plate. 20 μl of test compounds at 10× the final concentration were added to the plate followed by 200 μl of T-cells per well (2×10^5 cells). The cells were cultured for 4 h under standard cell culture conditions and cultures were pulsed with ^3H-thymidine (0.5 μCi/well; Amersham) for the final hour of the incubation.

[9] = tested on: peripheral blood mononuclear cells (PBMC); assay: T-lymphocyte proliferation, PMA/ionomycin stimulated PBMC, 3 days; conditions: Homo sapiens, 72 h, read-out: pIA50 Proliferation (3 days) (converted)
Text: The cell signalling pathways triggered by T-cell activation through the T cell receptor and CD28 can be mimicked in vitro using a phorbol ester, phorbol 12-myristate 13-acetate (PMA), which activates protein kinase C, and ionomycin, which induces calcium release from internal cellular stores. PMA and ionomycin-stimulated proliferation of peripheral blood mononuclear cells (PBMC), of which the predominant cell type is T-lymphocytes, provides a suitable assay for measuring the ability of small molecules to block T-cell proliferation.
Blood was centrifuged at 850 g for 10 minutes and the plasma was removed. […] The blood/Lymphoprep layers were centrifuged at 850 g for 20 minutes at 18° C. (with no brake).
10 μl of compound in solution was then added to the 96-well flat bottom assay plate (final volume of 200 μl). […] Both were diluted to 4× the final assay concentration in complete medium. 50 μl of each reagent was dispensed per well to give a final assay concentration of 0.5 ng/ml PMA and 500 ng/ml ionomycin. Control wells received 100 μl cells with PMA only (negative control 1), with ionomycin only (negative control 2) and 100 μl cells with 50 μl PMA and 50 μl ionomycin with no test compound (positive control). 100 μl complete medium was added to the negative controls. […]

IC50 [1]: 787 nM | IC50 [2]: 32.2 nM
SMILES: CC(C)Cn1c(=O)n(C)c(=O)c2cc(Cc3nc4ccccc4s3)sc21 [Ligand 4, 6-([benzothiazol-2-yl]methyl)-3-methyl-1-(2-methylpropyl)thieno[2,3-d]pyrimidine-2,4(1H,3H)-dione]

SMILES: N#CC(=Cc1ccc(O)cc1)C(=O)O [CHC, α-cyano-4-hydroxycinnamate]
IC50 [3]: 27000 nM

SMILES: CC(C)Cn1c(=O)n(C)c(=O)c2c(SCCCO)c(Cc3cccc4ccccc34)sc21 [Ligand 1, 5-[(3-hydroxypropyl)thio]-3-methyl-1-(2-methylpropyl)-6-(1-napthalenylmethyl)thieno[2,3-d]pyrimidine-2,4(1H,3H)-dione]
ED50 ([4]; read-out: ED50, specific IgG2a production): 10 mg/kg | ED50 ([4]; read-out: ED50, total IgG2a production): 30 mg/kg | EC50 [5]: 0.407 nM | maximum level of inhibition, extracellular lactate [6]: 30±1.9% | inhibition of OVA specific IgE ([7]; 3 mg/kg subcutaneous): 64% | inhibition of total IgE ([7]; 3 mg/kg subcutaneous): 67% | inhibition of OVA specific IgE ([7]; 30 mg/kg subcutaneous): 53% | inhibition of total IgE ([7]; 30 mg/kg subcutaneous): 84%

IC50 [8]: 2.69 nM | EC50 [5]: 2.29 nM | IC50 ([6]; Homo sapiens, T-lymphocyte, Mean±s.e.mean (mean±range for n=2), read-out: pIA50 Extracellular Lactate (converted)): 3.8 nM
SMILES: CON(C)C(=O)c1c(Cn2c(C)nc(Cl)c2Cl)sc2c1c(=O)n(C)c(=O)n2CC(C)C [Ligand 5, 6-[(4,5-Dichloro-2-methyl-1H-imidazol-1-yl)methyl]-1,2,3,4-tetrahydro-N-methoxy-N,3-dimethyl-1-(2-methylpropyl)-2,4-dioxo-thieno[2,3-d]pyrimidine-5-carboxamide]
IC50 [9]: 1.66 nM

IC50 [1]: 105 nM | IC50 [2]: 15.4 nM
SMILES: CC(C)Cn1c(=O)n(C)c(=O)c2cc(Cc3ccnc4ccccc34)sc21 [Ligand 3, 6-(4-quinolinylmethyl)--3-methyl-1-(2-methylpropyl)-thieno[2,3-d]pyrimidin-2,4(1H,3H)-dione]

SMILES: O=C(CCc1ccc(O)cc1)c1c(O)cc(O)cc1O [phloretin]
IC50 [3]: 1000 nM

SMILES: O=S(=O)(O)c1cc(N=C=S)ccc1C=Cc1ccc(N=C=S)cc1S(=O)(=O)O [DIDS, 4,4′-di-isothiocyanatostilbene-2,2′-disulphonate]
IC50 [3]: 50000 nM

From patent publication US20040072746A1, “Inhibitors of monocarboxylate transport” (priority 2001, published 2004)
